Data reported in ChEMBL document CHEMBL1156829 (Proc Natl Acad Sci U S A, 2008).

Columns and labels:
[1] = tested on: Plasmodium falciparum; assay: NOVARTIS: Inhibition of Plasmodium falciparum 3D7 (drug-susceptible) proliferation in erythrocyte-based infection assay; format: functional, organism-based; conditions: Plasmodium falciparum, 3D7
[2] = tested on: Plasmodium falciparum; assay: NOVARTIS: Inhibition of Plasmodium falciparum W2 (drug-resistant) proliferation in erythrocyte-based infection assay; format: functional, organism-based; conditions: Plasmodium falciparum, W2; read-out: EC50
[3] = NOVARTIS: Cytotoxicity against human hepatocellular carcinoma cell line (Huh7); format: toxicity, cell-based, Huh-7; conditions: Huh7 cells (hepatocellular carcinoma cell line)

SMILES | EC50 [1] | EC50 [2] | CC50 [3]
CCCS(=O)(=O)N1CCC(CO)(Cc2ccccc2C(F)(F)F)CC1 | 1250 nM | 692 nM | > 10000 nM
Cc1nc(NN=Cc2c(O)ccc3ccccc23)cc(N2CCCCC2)n1 | 609 nM | 339 nM | > 100000 nM
COc1ccc(CCNc2ncnc3c2[nH]c2ccccc23)cc1 | 299 nM | 401 nM | 24900 nM
CCN1CCN(c2cc(C)c3cc(NC(=O)c4cncc(Br)c4)ccc3n2)CC1 | 265 nM | 411 nM | 19400 nM
Cc1noc(C)c1S(=O)(=O)N(Cc1ccccc1)CC(O)CN1CCC(NC(=O)c2ccccc2Cl)C1 (stereo not given) | 256 nM | 99.7 nM | > 10000 nM
C[n+]1c2ccccc2nc2ccc(NC3CCCCC3N)cc21.[O-][Cl+3]([O-])([O-])[O-] (stereo not given) | 256 nM | 122 nM | 4210 nM
CN1C=C(c2ccc3ccccc3n2)C(C[N+](=O)[O-])c2ccccc21 (stereo not given) | 791 nM | 2110 nM | > 10000 nM
Cc1ccc(F)cc1NC(=O)Cn1c2ccccc2c(=O)c2cc(Cl)ccc21 | 1180 nM | 694 nM | > 100000 nM
CCOC(=O)c1c(NC(=O)c2ccccc2)sc2c(O)c(CN(CC)CC)ccc12 | 267 nM | 8.44 nM | > 46800 nM
Nc1nonc1-n1nnc(C(=O)NN=Cc2cccc(Cl)c2)c1-c1ccccc1 | 427 nM | 441 nM | > 100000 nM
CCSC(Cl)=C(NC(=O)c1ccccc1)[P+](c1ccccc1)(c1ccccc1)c1ccccc1.[O-][Cl+3]([O-])([O-])[O-] | 123 nM | 45.5 nM | 32200 nM
O=C(COc1ccc(Cl)cc1)NCc1ccc(CNc2noc3ccccc23)cc1 | 3100 nM | 7290 nM | 66200 nM
COc1ccc2c(c1)[nH]c1c(N3CCN(C(c4ccccc4)c4ccccc4)CC3)ncnc12 | 339 nM | 435 nM | 16300 nM
CCCCN(CC)CCNC(=O)c1cc2c(-c3ccc(Cl)cc3)nn(C)c2s1 | 89.8 nM | 320 nM | 39800 nM
CCCCOc1ccc(C(=O)Nc2c3c(nn2-c2ccc(C)cc2C)CSC3)cc1 | > 1520 nM | 1020 nM | > 10000 nM
CCN(CC)CCCN(Cc1cc2cc3c(cc2[nH]c1=O)OCCO3)C(=S)Nc1cccc(Cl)c1 | 1160 nM | 890 nM | 21200 nM
CC(=O)NC(CO)C(O)c1ccc([N+](=O)[O-])cc1 (stereo not given) | > 9720 nM | 2050 nM | > 100000 nM
CC(=O)c1cc(CN2CCC(C(=O)Nc3ccc(-n4nc(C)cc4C)cc3)CC2)cs1 | 969 nM | 665 nM | > 100000 nM
COc1cc(N)c(Cl)cc1C(=O)NCC1CCN(c2nc(C)cc(C)n2)CC1 | 345 nM | 531 nM | 64900 nM
CCN(CC)CCN(C)C1CCc2c(c(C(=O)N3CCCC3)nn2C)C1 (stereo not given) | > 424 nM | > 738 nM | 12400 nM
CC(=O)Nc1ccccc1-c1nnn(CC(N)=O)n1 | > 10500 nM | > 10400 nM | > 100000 nM
COc1cc(NC(C)CCCN(Cc2ccc(Cl)cc2)C(=O)Nc2ccc(Cl)cc2Cl)c2ncccc2c1 (stereo not given) | 416 nM | < 17.1 nM | 5600 nM
COC(=O)c1sc2nc(CN(C)Cc3nccs3)ccc2c1NC(=O)c1ccc(C)s1 | > 1330 nM | 1150 nM | > 2840 nM
Cc1ccc(-c2c3c(nc4sc(C(=O)Nc5ccc(F)cc5)c(N)c24)CCC3)cc1 | 68.8 nM | 27.2 nM | > 100000 nM
O=C(NCc1ccccc1)c1cnc(NCCC(c2ccccc2)c2ccccc2)nc1NCC1CCCCC1 | 527 nM | 292 nM | > 10000 nM

SMILES | EC50 [1] | EC50 [2] | CC50 [3]
CCC(C)(C)c1ccc(OCC(O)CNCc2ccccc2)c(C(C)(C)CC)c1 (stereo not given) | 361 nM | 100 nM | 9200 nM
C=CC[n+]1c(C=C2C=CN(C)C=C2)sc2ccccc21 | 172 nM | 140 nM | 24600 nM
CC(C)(C)CC(C)(C)Nc1c(-c2ccccc2OC(=O)c2ccccc2Cl)nc2ccccn12 | 822 nM | 58.8 nM | > 10000 nM
O=C(c1cc2n(n1)C(C(F)(F)F)CC(c1cccs1)N2)N1CCN(C(c2ccccc2)c2ccccc2)CC1 (stereo not given) | 341 nM | 745 nM | > 100000 nM
COC(=O)[C@@H]1C[C@@H](NC(=O)c2ccc(C)cc2)CN1Cc1ccc(OC)c(C)c1OC | 565 nM | 137 nM | > 10000 nM
O=C(NCCc1nc(-c2ccncc2)n[nH]1)C12CC3CC(CC(C3)C1)C2 | > 12500 nM | 44.9 nM | > 100000 nM
CCCCCc1cc(O)c2c3c(c(=O)oc2c1)CN(C)CC3 | 49.4 nM | 37.6 nM | > 96800 nM
CCOc1ccc(OCc2nnc(S)n2N)cc1 | > 1250 nM | > 752 nM | > 10000 nM
CCC(C)NC(=O)c1nn(-c2cccc(OC)c2)c(=O)c2ccccc12 (stereo not given) | 1970 nM | 3810 nM | > 100000 nM
O=C(O)CSc1ccc(C(=O)NC2CCCCNC2=O)cn1 (stereo not given) | > 1490 nM | 263 nM | > 10000 nM
COc1ccc(CCNC(=O)CC(=O)NN=Cc2ccc(Br)cc2)cc1OC | > 1250 nM | > 429 nM | > 10000 nM
O=C(/C=C/c1ccc(-c2cccc([N+](=O)[O-])c2)o1)Nc1nccs1 | > 1250 nM | > 570 nM | > 10000 nM
COc1ccc(C2N(Cc3ccccc3)c3ccccc3N2Cc2ccccc2)cc1 | 561 nM | 431 nM | 53000 nM
CCN(CC)CCCNC(=S)N(Cc1ccc(F)cc1)Cc1cc2cc(C)cc(C)c2[nH]c1=O | 2760 nM | 1200 nM | 22500 nM
COc1ccc(NC(=O)c2cc3cc(C4(O)CCN(CC(C)(C)C)CC4)ccc3o2)cc1OC | > 1250 nM | 480 nM | > 10000 nM
O=C1N(Cc2cc3ccccc3s2)CC2CN(Cc3ccc(F)c(F)c3)CCN12 (stereo not given) | 239 nM | < 13.9 nM | > 10000 nM
O=C(NCc1cccs1)c1ccc(OC2CCN(CC3CCCCC3)CC2)c(Cl)c1 | 719 nM | 44.6 nM | > 10000 nM
N#Cc1c(-c2ccccc2)cc(N2CCN(C3CCCCC3)CC2)n2c1nc1ccccc12 | 234 nM | 932 nM | > 100000 nM
CC(=O)c1c(C)n(CC(=O)Nc2cccc(C)c2)c2ccccc12 | 329 nM | 248 nM | > 100000 nM
CCCCOc1nc(-c2ccc(OC)cc2)n(C(=O)c2ccccc2OC)n1 | 8970 nM | 717 nM | > 100000 nM
CC1CNC(c2ccc(NC(=O)c3ccc(C(=O)Nc4ccc(C5=NC(C)CN5)cc4)c(N)c3)cc2)=N1 (stereo not given) | 47 nM | 22.2 nM | > 10000 nM
CCOc1c(Cl)cc(CNC(C)C(O)c2ccccc2)cc1OC (stereo not given) | 1650 nM | 427 nM | > 10000 nM
Cn1c(=O)c2c(ncn2CC(O)CN=C2CCCCN2)n(C)c1=O (stereo not given) | > 1250 nM | > 933 nM | > 10000 nM
CCOc1ccc2nc(C)cc(Nc3ccc(OC)cc3)c2c1 | 419 nM | 1150 nM | 8350 nM
CC(=O)c1cccc(NC(=O)NC2CC3CCCC(C2)N3CCc2ccccc2)c1 (stereo not given) | 17.3 nM | 12.6 nM | > 10000 nM
